Test results taken from patent publication US20240025907A1, “QUINAZOLINE PAN-KRas INHIBITORS” (Mirati Therapeutics, Inc., priority 2022, published 2024).
Where two headings read alike, the source gives them in different places.

How the values were obtained:
Assay type in all cases: cell-based
[1] = test system: KRas-mediated Phosphorylation of ERK in H727 cells; experiment: Cisbio HTRF pERK assay, H727 cells; conditions: for IC50: 3 hrs compound, read-out: Inhibition (HTRF IC50 nM) of KRas-mediated Phosphorylation of ERK, H727; for inhibition at 0.1 µM: NCI-H727, single point at 100 nM
[2] = test system: KRas-mediated Phosphorylation of ERK in HCT116 cells; experiment: Cisbio HTRF pERK assay, HCT116 cells; conditions: for IC50: HCT116 cells, 3 hrs compound, read-out: Inhibition (HTRF IC50 nM) of KRas-mediated Phosphorylation of ERK, HCT116; for inhibition at 0.1 µM: HCT-116, HCT116 cells, single point at 100 nM
[3] = test system: KRas-mediated Phosphorylation of ERK in A549 cells; experiment: Cisbio HTRF pERK assay, A549 cells; conditions: for IC50: A549 cells, 3 hrs compound, read-out: Inhibition (HTRF IC50 nM) of KRas-mediated Phosphorylation of ERK, A549; for inhibition at 0.1 µM: A549, A549 cells, single point at 100 nM
[4] = test system: KRas-mediated Phosphorylation of ERK in H460 cells; experiment: Cisbio HTRF pERK assay, H460 cells; conditions: for IC50: H460 cells, 3 hrs compound, read-out: Inhibition (HTRF IC50 nM) of KRas-mediated Phosphorylation of ERK, H460; for inhibition at 0.1 µM: NCI-H460, H460 cells, single point at 100 nM
[5] = test system: KRas-mediated Phosphorylation of ERK in H358 cells; experiment: Cisbio HTRF pERK assay, H358 cells; conditions: for IC50: H358 cells, 3 hrs compound, read-out: Inhibition (HTRF IC50 nM) of KRas-mediated Phosphorylation of ERK, H358; for inhibition at 0.1 µM: NCI-H358, H358 cells, single point at 100 nM
[6] = test system: KRas-mediated Phosphorylation of ERK in PSN1 cells; experiment: Cisbio HTRF pERK assay, PSN1 cells; conditions: 3 hour compound, read-out: Inhibition (HTRF IC50 nM) of KRas-mediated Phosphorylation of ERK, PSN1
Procedure: Inhibition of KRas Phosphorylation of ERK (HTRF) by Exemplary Compounds of Formula (I) • Cisbio HTRF Advanced pERK Assay Catalog #64AERPEH • Cell: MKN1, PSN1 • Procedure: • Day 1: Seed 6,000 cells/well −25 μl/well in 384-well white solid bottom plate; RPM1_10% FBS.

[7] = test system: KRas-mediated Phosphorylation of ERK in AsPC-1 cells; experiment: Cisbio HTRF pERK assay, AsPC-1 cells; conditions: for IC50: 3 hrs compound, read-out: Inhibition (HTRF IC50 nM) of KRas-mediated Phosphorylation of ERK, AsPC-1; for inhibition at 0.1 µM: ASPC1, single point at 100 nM

SMILES | IC50 [1] | IC50 [2] | IC50 [3] | IC50 [4] | IC50 [5] | IC50 [7] | IC50 [6] | other results
CN(C)C(=O)c1cc2n(n1)CCCN(c1nc(OC[C@@]34CCCN3C/C(=C\F)C4)nc3c(F)c(-c4ccc(F)c5sc(N)c(C#N)c45)c(Cl)cc13)C2 (atropisomer, axis not shown) [Example 195, 5-((R)-7-(2-amino-3-cyano-7-fluorobenzo[b]thiophen-4-yl)-6-chloro-8-fluoro-2-(((S,Z)-2-(fluoromethylene)tetrahydro-1H-pyrrolizin-7a(5H)-yl)methoxy)quinazolin-4-yl)-N,N-dimethyl-5,6,7,8-tetrahydro-4H-pyrazolo[1,5-a][1,4]diazepine-2-carboxamide] | 2 nM | 6 nM | 2 nM | 2 nM | 1 nM | – | – | IC50 ([6]; Homo sapiens, PSN1, 3 h): 115 nM
CN(C)C(=O)n1cc2c(n1)CCCN(c1nc(OC[C@@]34CCCN3C[C@H](F)C4)nc3c(F)c(-c4ccc(F)c5sc(N)c(C#N)c45)c(Cl)cc13)C2 (atropisomer, axis not shown; (aS)) [Example 186, 5-((S)-7-(2-amino-3-cyano-7-fluorobenzo[b]thiophen-4-yl)-6-chloro-8-fluoro-2-(((2R,7aS)-2-fluorotetrahydro-1H-pyrrolizin-7a(5H)-yl)methoxy)quinazolin-4-yl)-N,N-dimethyl-5,6,7,8-tetrahydropyrazolo[4,3-c]azepine-2(4H)-carboxamide] | 202 nM | 670 nM | 382 nM | 341 nM | 98 nM | 162 nM | > 10000 nM | –
N#Cc1c(N)sc2c(F)ccc(-c3c(Cl)cc4c(N5CCCn6nc(N)c(Cl)c6C5)nc(OC[C@@]56CCCN5C[C@H](F)C6)nc4c3F)c12 (atropisomer, axis not shown; (aS)) [Example 188, 2-amino-4-((R)-4-(2-amino-3-chloro-7,8-dihydro-4H-pyrazolo[1,5-a][1,4]diazepin-5(6H)-yl)-6-chloro-8-fluoro-2-(((2R,7aS)-2-fluorotetrahydro-1H-pyrrolizin-7a(5H)-yl)methoxy)quinazolin-7-yl)-7-fluorobenzo[b]thiophene-3-carbonitrile] | 10 nM | 18 nM | 14 nM | 13 nM | 2 nM | 3 nM | 544 nM | –
N#Cc1c(N)sc2c(F)ccc(-c3c(Cl)cc4c(N5CCCn6nc(N)c(Cl)c6C5)nc(OC[C@@]56CCCN5C[C@H](F)C6)nc4c3F)c12 (atropisomer, axis not shown; (aS)) [Example 189, 2-amino-4-((S)-4-(2-amino-3-chloro-7,8-dihydro-4H-pyrazolo[1,5-a][1,4]diazepin-5(6H)-yl)-6-chloro-8-fluoro-2-(((2R,7aS)-2-fluorotetrahydro-1H-pyrrolizin-7a(5H)-yl)methoxy)quinazolin-7-yl)-7-fluorobenzo[b]thiophene-3-carbonitrile] | 882 nM | 2470 nM | 3350 nM | 1530 nM | 327 nM | 472 nM | 7470 nM | –
CCc1c(F)ccc2cc(O)cc(-c3c(F)cc4c(N5CCCn6nc(C(=O)N(C)C)c(Cl)c6C5)nc(OC[C@@]56CCCN5C[C@H](F)C6)nc4c3F)c12 [Example 78, 3-chloro-5-(7-(8-ethyl-7-fluoro-3-hydroxynaphthalen-1-yl)-6,8-difluoro-2-(((2R,7aS)-2-fluorohexahydro-1H-pyrrolizin-7a-yl)methoxy)quinazolin-4-yl)-N,N-dimethyl-5,6,7,8-tetrahydro-4H-pyrazolo[1,5-a][1,4]diazepine-2-carboxamide] | – | – | – | – | – | – | – | inhibition at 0.1 µM ([7]; Homo sapiens): 98%; inhibition at 0.1 µM ([1]; Homo sapiens): 75%; inhibition at 0.1 µM ([2]; Homo sapiens): 75%; inhibition at 0.1 µM ([3]; Homo sapiens): 94%; inhibition at 0.1 µM ([4]; Homo sapiens): 81%; inhibition at 0.1 µM ([5]; Homo sapiens): 96%
CCc1c(F)ccc2cc(O)cc(-c3c(F)cc4c(N5CCCC6(CCO6)C5)nc(OCC5(CN(C)C)CC5)nc4c3F)c12 (stereo not drawn) [Example 82, 4-(2-((1-((dimethylamino)methyl)cyclopropyl)methoxy)-6,8-difluoro-4-(1-oxa-6-azaspiro[3.5]nonan-6-yl)quinazolin-7-yl)-5-ethyl-6-fluoronaphthalen-2-ol] | – | – | – | – | – | – | – | inhibition at 0.1 µM ([7]; Homo sapiens): 72%; inhibition at 0.1 µM ([1]; Homo sapiens): 34%; inhibition at 0.1 µM ([2]; Homo sapiens): 24%; inhibition at 0.1 µM ([3]; Homo sapiens): 33%; inhibition at 0.1 µM ([4]; Homo sapiens): 63%; inhibition at 0.1 µM ([5]; Homo sapiens): 80%
N#Cc1c(N)sc2c(F)ccc(-c3c(Cl)cc4c(N5CC6CCC(C5)N6)nc(OC[C@@]56CCCN5C/C(=C\F)C6)nc4c3F)c12 [Example 179, (S)-4-(4-((1R,5S)-3,8-diazabicyclo[3.2.1]octan-3-yl)-6-chloro-8-fluoro-2-(((S,Z)-2-(fluoromethylene)tetrahydro-1H-pyrrolizin-7a(5H)-yl)methoxy)quinazolin-7-yl)-2-amino-7-fluorobenzo[b]thiophene-3-carbonitrile] | 6810 nM | 3770 nM | 3140 nM | 2320 nM | 2610 nM | 116 nM | – | –
C=C1CN2CCC[C@]2(COc2nc(N3CC4CCC(C3)N4)c3cc(Cl)c(-c4ccc(F)c5sc(N)c(C#N)c45)c(F)c3n2)C1 [Example 181, (S)-4-(4-((1R,5S)-3,8-diazabicyclo[3.2.1]octan-3-yl)-6-chloro-8-fluoro-2-(((R)-2-methylenetetrahydro-1H-pyrrolizin-7a(5H)-yl)methoxy)quinazolin-7-yl)-2-amino-7-fluorobenzo[b]thiophene-3-carbonitrile] | 8500 nM | 8030 nM | > 10000 nM | 9660 nM | 4560 nM | 950 nM | 5260 nM | –
C=C1CN2CCC[C@]2(COc2nc(N3CC4CCC(C3)N4)c3cc(Cl)c(-c4ccc(F)c5sc(N)c(C#N)c45)c(F)c3n2)C1 [Example 182, (R)-4-(4-((1R,5S)-3,8-diazabicyclo[3.2.1]octan-3-yl)-6-chloro-8-fluoro-2-(((R)-2-methylenetetrahydro-1H-pyrrolizin-7a(5H)-yl)methoxy)quinazolin-7-yl)-2-amino-7-fluorobenzo[b]thiophene-3-carbonitrile] | 1390 nM | 114 nM | 377 nM | 207 nM | 136 nM | 4 nM | 1820 nM | –
C=C1CN2CCC[C@@]2(COc2nc(N3CC4CCC(C3)N4)c3cc(Cl)c(-c4ccc(F)c5sc(N)c(C#N)c45)c(F)c3n2)C1 [Example 183, (S)-4-(4-((1R,5S)-3,8-diazabicyclo[3.2.1]octan-3-yl)-6-chloro-8-fluoro-2-(((S)-2-methylenetetrahydro-1H-pyrrolizin-7a(5H)-yl)methoxy)quinazolin-7-yl)-2-amino-7-fluorobenzo[b]thiophene-3-carbonitrile] | > 10000 nM | 4800 nM | > 10000 nM | 8090 nM | 6740 nM | 254 nM | 6150 nM | –
N#Cc1c(N)sc2c(F)ccc(-c3c(Cl)cc4c(N5C[C@@H]6C(=O)NC(=O)[C@@H]6C5)nc(OC[C@@]56CCCN5C[C@H](F)C6)nc4c3F)c12 [Example 200, 2-amino-4-(6-chloro-4-((3aR,6aS)-4,6-dioxohexahydropyrrolo[3,4-c]pyrrol-2(1H)-yl)-8-fluoro-2-(((2R,7aS)-2-fluorotetrahydro-1H-pyrrolizin-7a(5H)-yl)methoxy)quinazolin-7-yl)-7-fluorobenzo[b]thiophene-3-carbonitrile] | – | – | – | – | – | – | – | IC50 ([7]; Homo sapiens, ASPC1, 3 h): 2740 nM; IC50 ([1]; Homo sapiens, NCI-H727, 3 h): 4730 nM; IC50 ([2]; Homo sapiens, HCT-116, 3 h): 4560 nM; IC50 ([3]; Homo sapiens, A549, 3 h): > 10000 nM; IC50 ([4]; Homo sapiens, NCI-H460, 3 h): 2760 nM; IC50 ([5]; Homo sapiens, NCI-H358, 3 h): 1680 nM
